≈ marks a conversion by molar mass, not a printed value.
Key:
Staphylococcus aureus [1] = experiment: Antibacterial activity against […] Staphylococcus aureus ATCC43300 assessed as reduction in bacterial growth by broth microdilution assay; format: functional
[2] = test system: Staphylococcus epidermidis; experiment: Antibacterial activity against vancomycin-susceptible Staphylococcus epidermidis ATCC12228 assessed as reduction in bacterial growth by broth microdilution assay; format: functional
Staphylococcus aureus [3] = experiment: Antibacterial activity against Staphylococcus aureus ATCC25923 assessed as reduction in bacterial growth by broth microdilution assay; format: functional
Bacillus subtilis = experiment: Antibacterial activity against […] Bacillus subtilis ATCC9372 assessed as reduction in bacterial growth by broth microdilution assay; format: functional
Enterococcus faecalis = experiment: Antibacterial activity against penicillin-susceptible Enterococcus faecalis ATCC29212 assessed as reduction in bacterial growth by broth microdilution assay; format: functional
Pseudomonas aeruginosa = experiment: Antibacterial activity against penicillin-susceptible Pseudomonas aeruginosa ATCC27853 assessed as reduction in bacterial growth by broth microdilution assay; format: functional
Staphylococcus aureus [4] = experiment: Antibacterial activity against Staphylococcus aureus ATCC31007 assessed as reduction in bacterial growth by broth microdilution assay; format: functional
Acinetobacter baumannii = experiment: Antibacterial activity against Acinetobacter baumannii ATCC19606 assessed as reduction in bacterial growth by broth microdilution assay; format: functional
Escherichia coli = experiment: Antibacterial activity against Escherichia coli ATCC25922 assessed as reduction in bacterial growth by broth microdilution assay; format: functional
Klebsiella pneumoniae = experiment: Antibacterial activity against erythromycin-susceptible Klebsiella pneumoniae ATCC10031 assessed as reduction in bacterial growth by broth microdilution assay; format: functional
[5] = Hemolytic activity in RBC (unknown origin) assessed as hemolysis; format: toxicity, cell-based

Row | SMILES | MIC (Staphylococcus aureus [1]) | MIC [2] | MIC (Staphylococcus aureus [3]) | MIC (Bacillus subtilis) | MIC (Enterococcus faecalis) | MIC (Pseudomonas aeruginosa) | MIC (Staphylococcus aureus [4]) | MIC (Acinetobacter baumannii) | MIC (Escherichia coli) | MIC (Klebsiella pneumoniae) | HC90 ([5]; rbc) | HC50 ([5]; red blood cells)
1 | CCN(CC)CCCNCCCOc1ccc(/C=C/C(=O)c2c(OC)c3c(c4c2OC(C)(CCC=C(C)C)C=C4)OC(C)(CCC=C(C)C)C=C3)cc1 (configuration not stated) | 16 µg/mL (≈ 22.1 µM) | 4 µg/mL (≈ 5.52 µM) | 16 µg/mL (≈ 22.1 µM) | 8 µg/mL (≈ 11 µM) | 32 µg/mL (≈ 44.1 µM) | > 128 µg/mL | 32 µg/mL (≈ 44.1 µM) | > 128 µg/mL | > 128 µg/mL | > 128 µg/mL |  | 
2 | COc1c2c(c3c(c1C(=O)/C=C/c1ccc(OCCCN4CCSCC4)cc1)OC(C)(CCC=C(C)C)C=C3)OC(C)(CCC=C(C)C)C=C2 (configuration not stated) | > 128 µg/mL | > 128 µg/mL | > 128 µg/mL | > 128 µg/mL | > 128 µg/mL | > 128 µg/mL | > 128 µg/mL | > 128 µg/mL | > 128 µg/mL | > 128 µg/mL |  | 
3 | COc1c2c(c3c(c1C(=O)/C=C/c1ccc(OCCCN(CCCN(C)C)CCCN(C)C)cc1)OC(C)(CCC=C(C)C)C=C3)OC(C)(CCC=C(C)C)C=C2 (configuration not stated) | 8 µg/mL (≈ 10.2 µM) | 2 µg/mL (≈ 2.56 µM) | 8 µg/mL (≈ 10.2 µM) | 8 µg/mL (≈ 10.2 µM) | 8 µg/mL (≈ 10.2 µM) | > 128 µg/mL | 8 µg/mL (≈ 10.2 µM) | > 128 µg/mL | > 128 µg/mL | > 128 µg/mL |  | 
4 | CC(=O)c1c(OCC(=O)N(C)CCCN(C)C)c2c(c3c1OC(C)(CCC=C(C)C)C=C3)OC(C)(CCC=C(C)C)C=C2 (configuration not stated) | 4 µg/mL (≈ 6.75 µM) | 2 µg/mL (≈ 3.37 µM) | 4 µg/mL (≈ 6.75 µM) | 2 µg/mL (≈ 3.37 µM) | 2 µg/mL (≈ 3.37 µM) | 128 µg/mL (≈ 216 µM) | 4 µg/mL (≈ 6.75 µM) | 128 µg/mL (≈ 216 µM) | > 128 µg/mL | > 128 µg/mL |  | 
5 | COc1c2c(c3c(c1C(=O)/C=C/c1ccc(OCCCN(C)CCCN(C)C)cc1)OC(C)(CCC=C(C)C)C=C3)OC(C)(CCC=C(C)C)C=C2 (configuration not stated) | > 128 µg/mL | 2 µg/mL (≈ 2.81 µM) | > 128 µg/mL | > 128 µg/mL | 16 µg/mL (≈ 22.5 µM) | > 128 µg/mL | > 128 µg/mL | > 128 µg/mL | > 128 µg/mL | > 128 µg/mL |  | 
6 | CNCCN(C)C(=O)COc1c2c(c3c(c1C(C)=O)OC(C)(CCC=C(C)C)C=C3)OC(C)(CCC=C(C)C)C=C2 (configuration not stated) | 4 µg/mL (≈ 7.08 µM) | 4 µg/mL (≈ 7.08 µM) | 4 µg/mL (≈ 7.08 µM) | 16 µg/mL (≈ 28.3 µM) | 8 µg/mL (≈ 14.2 µM) | 128 µg/mL (≈ 227 µM) | 4 µg/mL (≈ 7.08 µM) | 128 µg/mL (≈ 227 µM) | > 128 µg/mL | 128 µg/mL (≈ 227 µM) |  | 
7 | CCCCN(CCCC)CCCNC(=O)COc1c2c(c3c(c1C(C)=O)OC(C)(CCC=C(C)C)C=C3)OC(C)(CCC=C(C)C)C=C2 (configuration not stated) | 8 µg/mL (≈ 12.1 µM) | 4 µg/mL (≈ 6.03 µM) | 4 µg/mL (≈ 6.03 µM) | 8 µg/mL (≈ 12.1 µM) | 4 µg/mL (≈ 6.03 µM) | > 128 µg/mL | 4 µg/mL (≈ 6.03 µM) | > 128 µg/mL | > 128 µg/mL | > 128 µg/mL |  | 
8 | CC(=O)c1c(OCC(=O)NCCCN2CCN(C)CC2)c2c(c3c1OC(C)(CCC=C(C)C)C=C3)OC(C)(CCC=C(C)C)C=C2 (configuration not stated) | 4 µg/mL (≈ 6.31 µM) | 1 µg/mL (≈ 1.58 µM) | 2 µg/mL (≈ 3.16 µM) | 2 µg/mL (≈ 3.16 µM) | 0.5 µg/mL (≈ 0.789 µM) | > 128 µg/mL | 2 µg/mL (≈ 3.16 µM) | 128 µg/mL (≈ 202 µM) | > 128 µg/mL | > 128 µg/mL | 137.3 µg/mL | 46 µg/mL
9 | COc1c2c(c3c(c1C(=O)/C=C/c1ccc(OCCC[N+](C)(C)CCCN(C)C)cc1)OC(C)(CCC=C(C)C)C=C3)OC(C)(CCC=C(C)C)C=C2 (configuration not stated) | 16 µg/mL | 2 µg/mL | 4 µg/mL | 4 µg/mL | 16 µg/mL | > 128 µg/mL | 32 µg/mL | 32 µg/mL | > 128 µg/mL | > 128 µg/mL |  | 
